{
  "source": "patent US12171813B2",
  "about": "“Methods of and compositions for reducing gene expression and/or activity” (Christiana Care Gene Editing Institute, Inc., priority 2021, dated 2024)",
  "key": {"NRF2 gene": {"tested_on": "NRF2 gene", "assay": "Genomic DNA PCR assessment of large deletions in NRF2 gene", "assay_type": "cell-based, Human", "conditions": "gRNA alone, not paired", "procedure": "After CRISPR reactions, genomic DNA was prepared for PCR amplification of the target region from NRF2 gene. PCR-amplified DNA was then analyzed by electrophoresis through a 1% agarose gel for 75 minutes at 80v. DNA was stained with SYBR Safe. Lanes 1 and 12: NEB 2 Log Ladder; Lane 2: Scrambled gRNA; Lane 3: R34G gRNA alone; Lane 4: NRF2 3-4 SureKill gRNA 3 alone; Lane 5: NRF2 3-4 SureKill gRNA 12 alone; Lane 6: NRF2 3-4 SureKill gRNA 14 alone; Lane 7: NRF2 3-4 SureKill gRNA 15 alone; Lane 8: NRF2 3-4 SureKill gRNA 3+R34G gRNA; Lane 9: NRF2 3-4 SureKill gRNA 12+R34G gRNA; Lane 10: NRF2 3-4 SureKill gRNA 14+R34G gRNA; Lane 11: NRF2 3-4 SureKill gRNA 15+R34G gRNA. On the left side of the image are markers indicating DNA size in bp. Expected dropout size for NRF2 3-4 SureKill gRNA 3+R34G gRNA: 676 bp. Expected dropout size for NRF2 3-4 SureKill gRNA 12+R34G gRNA: 658 bp. Expected dropout size for NRF2 3-4 SureKill gRNA 14+R34G gRNA: 582 bp. Expected dropout size for NRF2 3-4 SureKill gRNA 15+R34G gRNA: 515 bp. Dropout bands are indicated by asterisks.\nHuman lung squamous cell carcinoma NCI-H1703 clone 44-25 cells were derived from NCI-H1703 cells (#CRL-5889) which were purchased from ATCC (Manassas, VA, USA). […]\n(§1) Transfections were carried out using the Lonza Nuclefector 4d. […] RNPs were complexed at 250:50 pmol for 30 minutes prior to transfection, during which time cells were harvested and counted. […]"}, "NRF2": {"tested_on": "NRF2", "assay": "cDNA PCR analysis of exon skipping / full-size transcript in NFE2L2", "assay_type": "cell-based, Human", "conditions": "gRNA individually applied in the CRISPR reaction; NCI-H1703 clone 44-25 cells", "procedure": "After CRISPR reactions, total RNA was prepared, and cDNA synthesized for PCR amplification of the target region from NRF2. PCR-amplified DNA was then analyzed by electrophoresis through a 1% agarose gel for 75 minutes at 80v. DNA was stained with SYBR Safe. Lanes 1 and 10: NEB 2 Log Ladder; Lane 2: Scrambled gRNA; Lane 3: NRF2 3-4 SureKill gRNA 3 alone; Lane 4: NRF2 3-4 SureKill gRNA 12 alone; Lane 5: NRF2 3-4 SureKill gRNA 14 alone; Lane 6: NRF2 3-4 SureKill gRNA 15 alone; Lane 7: NRF2 3-4 SureKill gRNA 21 alone; Lane 8: NRF2 3-4 SureKill gRNA 25 alone; Lane 9: NRF2 3-4 SureKill gRNA 26 alone. On the left side of the image are markers indicating DNA size in bp.\nAfter CRISPR reactions, total RNA was prepared, and cDNA synthesized for PCR amplification of the target region from NRF2. PCR-amplified DNA was then analyzed by electrophoresis through a 1% agarose gel for 75 minutes at 80v. DNA was stained with SYBR Safe. Lane 1: NEB 2 Log Ladder; Lane 2: Scrambled gRNA; Lane 3: R34G gRNA alone; Lane 4: NRF2 3-4 SureKill gRNA 3+R34G gRNA; Lane 5: NRF2 3-4 SureKill gRNA+R34G gRNA; Lane 6: NRF2 3-4 SureKill gRNA 14+R34G gRNA. […]\nas §1"}},
  "data": [
    {"substance": "R34G gRNA: guide RNA GATATAGATCTTGGAGTAAG, SEQ ID NO:1, targets NRF2 R34G mutation (listed as DNA, chemistry not given here)", "values": [
      {"measurement": "large deletions (genomic DNA PCR)", "setting": "NRF2 gene", "value": "does not induce a large deletion"},
      {"measurement": "exon skipping (cDNA analysis)", "setting": "NRF2", "value": "induced some level of exon skipping"}
    ]}
  ]
}
